Source: paper PMC6832134, “Discovery of Novel Integrase Inhibitors Acting outside the Active Site Through High-Throughput Screening” (Molecules, 2019)
“And” between values parts separate entries of the source, which are not always exact repeats. Equal values may be shown once. Read-outs that look alike come from different tables or passages of the source.

What was measured:
in vitro = settings: human
HIV-1 IN (WT) = target: T1, HIV-1 IN (WT) (Human immunodeficiency virus type 1 group M subtype B, UniProt P12497); experiment: Gel-based IN strand transfer assay, WT enzyme; type: biochemical; settings: gel-based assay, coupled ST, at least three independent experiments; read-out: In Vitro IC50 +/−SD, ST
T1 construct: 250 nM of recombinant HIV-1 integrase; made in house; host or cells: E. coli RosettaII
Method: (§1) IN reactions were carried out by adding drugs or an equivalent volume of 100% DMSO (dimethyl sulfoxide, used as the drug solvent) to a mixture of 20 nM duplex DNA (21T/21B) and 400 nM IN in 50 mM MOPS pH 7.2, 7.5 mM MgCl2, and 14 mM 2-mercaptoethanol. Reactions were performed at 37 °C for 2 h and quenched by addition of an equal volume of loading buffer [formamide containing 1% SDS (sodium dodecyl sulfate), 0.25% bromophenol blue, and xylene cyanol]. Reaction products were separated in 16% polyacrylamide denaturing sequencing gels. Dried gels were visualized using a Typhoon 8600 (GE Healthcare, Piscataway, NJ, USA). Densitometric analyses were performed using the ImageQuant 5.1 software from GE Healthcare. Data analyses (linear regression, IC50 determination, and standard deviation) were performed using Prism 6.05 software from GraphPad.

[1] = test system: VSV pseudo-typed HIV-1 virus particles; experiment: organism not typed; type: cell-based; settings: for EC50: read-out: Ex Vivo Antiviral Activity EC50
HIV-1 IN [2] = target: T2, HIV-1 IN (Human immunodeficiency virus type 1 group M subtype B, UniProt P12497); experiment: Gel-based IN 3'-processing assay; type: biochemical; settings: at least three independent experiments, read-out: In Vitro IC50 +/−SD, 3'-P
T2 construct: 250 nM of recombinant HIV-1 integrase; made in house; host or cells: E. coli RosettaII
Method: as §1

HIV-1 IN [3] = target: T2, HIV-1 IN; parameters: method as in PMID 12920196; settings: ref [4], read-out: IC50, ST inhibition, cited from earlier work
HIV-1 integrase = target: T3, HIV-1 integrase (Human immunodeficiency virus type 1 group M subtype B, UniProt P12497); experiment: Electrochemiluminescent integrase strand transfer assay (BioVeris), high-throughput screen; type: biochemical; settings: for inhibition at 10 µM: single dose 10 µM, read-out: inhibition of IN ST activity
T3 construct: 250 nM of recombinant HIV-1 integrase; made in house; host or cells: E. coli RosettaII
Method: To enable a high-throughput screening, we used the ST assay developed by BioVeris. This proprietary plate-based assay measured stand transfer using electrochemiluminescent technology. First, we validated the assay using HIV-1 IN in the presence of DMSO, or increasing concentrations of a known inhibitor, MA-DKA (also known as 118-D-24, Figure 1A). […] Next, we used MA-DKA as a control in every test plate and screened a large library of molecules. Overall, 3095 compounds were tested as part of the NCI Developmental Therapeutics Program’s small molecule plated sets from the Open Chemical Repository Collection. […] A single dose testing (10 µM) enabled the identification of 130 molecules that inhibited ST by over 50% (light dashed line, Figure 1A). […] NSC153308 is a 2-phenacylsulfanylacetic acid that resembles the diketo acid chemotype. On the other side, NSC119889 is a xanthene derivative similar to V-165 [6]. […] However, the purpose of this study was to identify a new chemotype that might act on IN via a novel mechanism, distinct from known active site inhibitors. Accordingly, we retrieved the chemical structure of the 130 hits and looked for a chemical pattern different from that of conventional strand transfer inhibitors.
This electrochemiluminescent plate-based assay was performed using a BioVeris M-SERIES Analyzer (Gaithersburg, MD, USA). DNA substrates were obtained from BioVeris and used according to the manufacturer’s recommendations. Briefly, a biotinylated donor DNA was incubated for 30 min at 37 °C in the presence of 250 nM of recombinant HIV-1 integrase. Complexes were bound to paramagnetic streptavidin-coated beads (M-280 Dynabeads). After addition of the drug, the integration reaction was initiated by addition of a ruthenium-labeled target DNA. The reaction was carried out for 60 min at 37 °C, before reading on the BioVeris M-SERIES Analyzer.

HIV-1 IN [4] = target: T2, HIV-1 IN; parameters: method as in PMID 12920196; settings: regardless of metal cofactor; ref [4]; read-out: IC50, inhibition of 3'-P; cited from earlier work
HIV-1 IN mutant N155H [5] = experiment: biochemical; type: biochemical; settings: N155H vs WT, Figure 2B
Method: as §1

HIV-1 IN mutant Y143R = target: T4, HIV-1 IN mutant Y143R (Human immunodeficiency virus type 1 group M subtype B, UniProt P12497, Y1290R); experiment: Gel-based IN strand transfer assay, Y143R mutant; type: biochemical
T4 construct: RAL-resistant HIV-1 mutant integrases; made in house; host or cells: E. coli RosettaII
Method: as §1

HIV-1 IN [6] = target: T2, HIV-1 IN; experiment: Synergy test with the active site inhibitor MK-2048; type: biochemical; settings: subinhibitory dose of stilbene disulfonic acid derivative; IC50 of MK-2048 not affected; data not shown
[7] = target: T5, HIV-1 IN mutant G140S/Q148H (Human immunodeficiency virus type 1 group M subtype B, UniProt P12497, G1287S/Q1295H); experiment: Gel-based IN strand transfer assay, G140S/Q148H mutant; type: biochemical
T5 construct: RAL-resistant HIV-1 mutant integrases; made in house; host or cells: E. coli RosettaII
Method: as §1

HIV-1 IN mutant N155H [8] = target: T6, HIV-1 IN mutant N155H (Human immunodeficiency virus type 1 group M subtype B, UniProt P12497, N1302H); experiment: biochemical; type: biochemical
T6 construct: RAL-resistant HIV-1 mutant integrases; made in house; host or cells: E. coli RosettaII
Method: as §1

For CCOc1ccc(/N=N/c2ccc(/C=C/c3ccc(/N=N/c4ccc(OCC)cc4)cc3S(=O)(=O)O)c(S(=O)(=O)O)c2)cc1 [NSC47745], the CC50 (in vitro) was greater than 100000 nM, the IC50 (HIV-1 IN (WT)) was ~3000 nM and 3100 nM and the “Selectivity Index SI” value [1] was greater than 6.5. For the same compound, the EC50 [1] was 15300 nM and the IC50 (HIV-1 IN [2]) was ~3000 nM and 3200 nM.

In the case of O=C(O)C(=O)CC(=O)c1cccn1Cc1ccc(F)cc1 [MA-DKA], the IC50 (HIV-1 IN [3]; magnesium as cofactor) is listed as 330 nM, the IC50 (HIV-1 IN [3]; manganese as cofactor) is listed as 70 nM and the “inhibition of IN ST activity” value (HIV-1 integrase; at 10 µM, obtained from linear regression of the dose response in Figure 1A) is listed as 94.8%. For the same compound, the IC50 (HIV-1 integrase; electrochemiluminescent plate-based assay, dose response, read-out: IC50, ST inhibition) was 163 nM and the IC50 (HIV-1 IN [4]) was 70000 nM.

For Cc1nnc(C(=O)NC(C)(C)c2nc(C(=O)NCc3ccc(F)cc3)c(O)c(=O)n2C)o1 [RAL, raltegravir, reference compound], the “loss of potency compared to the WT enzyme” value (HIV-1 IN mutant N155H [5]) was “one to two orders of magnitude”.

In the case of Nc1ccc(/N=N/c2ccc(/C=C/c3ccc(/N=N/c4ccc(N)c5ccc(S(=O)(=O)O)cc45)cc3S(=O)(=O)O)c(S(=O)(=O)O)c2)c2cc(S(=O)(=O)O)ccc12 [NSC34933], the CC50 (in vitro) is reported as greater than 100000 nM, the IC50 (HIV-1 IN mutant Y143R) is reported as 95 nM and the “synergy with active site inhibitor MK-2048” value (HIV-1 IN [6]) is reported as “could not see any cooperative effect”. The IC50 [7] was 320 nM, the IC50 (HIV-1 IN (WT)) was 500 ± 200 nM and the IC50 (HIV-1 IN mutant N155H [8]) was 91 nM. The “Selectivity Index SI” value [1] was greater than 166, the EC50 [1] was 600 nM and the IC50 (HIV-1 IN [2]) was 1100 ± 300 nM.

O=C(Nc1ccc(Sc2ccc(/N=N/c3c(O)c(S(=O)(=O)O)cc4cc(S(=O)(=O)O)ccc34)cc2)cc1)c1ccc(/N=N/c2c(O)ccc3c(S(=O)(=O)O)cc(S(=O)(=O)O)cc23)cc1 [NSC76027] showed an inhibition at 10 µM (HIV-1 integrase) of 62.8%.

For O=C(O)c1c(Br)c(Br)c(Br)c(Br)c1C1c2ccc(O)cc2Oc2cc(O)ccc21 [NSC119889], the inhibition at 10 µM (HIV-1 integrase) was 98.5%.

With O=[N+]([O-])c1ccc(/C=C/c2ccc([N+](=O)[O-])cc2S(=O)(=O)O)c(S(=O)(=O)O)c1 [NSC163175] the IC50 (HIV-1 IN (WT)) was greater than 111000 nM and the IC50 (HIV-1 IN [2]) was greater than 111000 nM.

Work on O=S(=O)(O)c1cc(/N=N/c2cc(S(=O)(=O)O)c3cccnc3c2O)ccc1/C=C/c1ccc(/N=N/c2cc(S(=O)(=O)O)c3cccnc3c2O)cc1S(=O)(=O)O [NSC638352] yielded an inhibition at 10 µM (HIV-1 integrase) of 67.2%.

O=C(O)CSCC(=O)c1ccccc1 [NSC153308] showed an inhibition at 10 µM (HIV-1 integrase) of 99.5%.

Nc1ccc(/C=C/c2ccc(N)cc2S(=O)(=O)O)c(S(=O)(=O)O)c1 [NSC163] gave an IC50 (HIV-1 IN (WT)) greater than 111000 nM and an IC50 (HIV-1 IN [2]) greater than 111000 nM.
